“And” between values parts separate entries of the source, which are not always exact repeats. Identical values can stand only once.
Test: Pharmacokinetics of rivaroxaban in rats after avitinib or gefitinib pretreatment
Type: in vivo, Sprague–Dawley (SD) rats
Parameters: AUC(0-∞): concentration or dose not given beside the values
Experimental: Eighteen male Sprague–Dawley (SD) rats weighing 300 ± 20 g were provided by the Experimental Animal Center of Wenzhou Medical University (Wenzhou, China) and kept under controlled conditions at a temperature of 23 ± 2 °C, relative humidity of 50 ± 10%, and 12 h light–dark cycle. Eighteen male SD rats were randomly assigned to three groups: avitinib, gefitinib, and control, with six rats per group. Prior to the experiment, the rats were not administered any other medications and fasted for 12 h. The experimental procedures and protocols adhered to Animal Ethics standards and were approved by the Animal Care and Use Committee of Wenzhou Medical University (approval no. wydw2019–650). All rats were anesthetized with sodium pentobarbital (40mg/kg, i.p) to relieve pain. The rats were killed through cervical dislocation.
Prior to the experiment in vivo, the six rats in the avitinib group were administered 30 mg/kg avitinib and 0.5% sodium carboxymethyl cellulose (CMC-Na) solution by gavage daily for 7 d. […] The supernatant was collected and stored at −80 °C. After thawing, 50 μL of plasma was extracted; 100 μL of acetonitrile solution containing midazolam (200 ng/mL) was then added to induce protein precipitation. After vortexing for 30 s and centrifuging at 13,000 rpm for 5 min, the […].
All assays were performed in triplicate, and the results are expressed as mean ± standard deviation. DAS software v. […] SPSS v. 25.0 (IBM, NY, USA) was used for data processing. Student’s t-tests were used to detect differences between groups. Differences with p < 0.05 were considered statistically significant.

[1] = avitinib group, single rats No1-No6, listed as 利伐沙班
[2] = gefitinib group, single rats No1-No6, listed as 利伐沙班

- AUMC(0-t) (avitinib group, Mean): 34198 h*h*ug/L
- AUMC(0-∞) (avitinib group, Mean): 40098.5 h*h*ug/L
- MRT(0-∞) (avitinib group, Mean): 4.258 h
- R_AUC(t/∞) (avitinib group, Mean): 96.35%
- VRT(0-t) (avitinib group, Mean): 6.828 h^2
- VRT(0-∞) (avitinib group, Mean): 12.881 h^2
- Vz/F (avitinib group, Mean): 3.719 L/kg
- AUMC(0-t) (gefitinib group, Mean): 283625 h*h*ug/L
- AUMC(0-∞) (gefitinib group, Mean): 684002 h*h*ug/L
- R_AUC(t/∞) (gefitinib group, Mean): 79.633%
- VRT(0-t) (gefitinib group, Mean): 8.14 h^2
- VRT(0-∞) (gefitinib group, Mean): 63.366 h^2
- concentration at 5 min (male, Sprague-Dawley, rat, plasma, oral, 10 mg/kg, rivaroxaban ng/ml mean, control (rivaroxaban alone) group, mean of rats 13-18, time 0.0833): 158 ng/mL
- concentration at 0.25 h (male, Sprague-Dawley, rat, plasma, oral, 10 mg/kg, rivaroxaban ng/ml mean, control (rivaroxaban alone) group, mean of rats 13-18, time 0.25): 259 ng/mL
- concentration at 0.5 h (male, Sprague-Dawley, rat, plasma, oral, 10 mg/kg, rivaroxaban ng/ml mean, control (rivaroxaban alone) group, mean of rats 13-18, time 0.5): 397 ng/mL
- concentration at 1 h (male, Sprague-Dawley, rat, plasma, oral, 10 mg/kg, rivaroxaban ng/ml mean, control (rivaroxaban alone) group, mean of rats 13-18, time 1): 435 ng/mL
- concentration at 2 h (male, Sprague-Dawley, rat, plasma, oral, 10 mg/kg, rivaroxaban ng/ml mean, control (rivaroxaban alone) group, mean of rats 13-18, time 2): 337 ng/mL
- concentration at 3 h (male, Sprague-Dawley, rat, plasma, oral, 10 mg/kg, rivaroxaban ng/ml mean, control (rivaroxaban alone) group, mean of rats 13-18, time 3): 291 ng/mL
- concentration at 4 h (male, Sprague-Dawley, rat, plasma, oral, 10 mg/kg, rivaroxaban ng/ml mean, control (rivaroxaban alone) group, mean of rats 13-18, time 4): 238 ng/mL
SMILES: O=C(NC[C@H]1CN(c2ccc(N3CCOCC3=O)cc2)C(=O)O1)c1ccc(Cl)s1 [rivaroxaban, Rivaroxaban]
- AUC(0-t) [1]: 6581.83 ng·h/mL and 7888.62 ng·h/mL and 9151.91 ng·h/mL and 7417.4 ng·h/mL and 6560.88 ng·h/mL and 16372.3 ng·h/mL
- AUC(0-∞) [1]: 6854.37 ng·h/mL and 9138.32 ng·h/mL and 9162.9 ng·h/mL and 7462.9 ng·h/mL and 6602.34 ng·h/mL and 16863.5 ng·h/mL
- AUMC(0-t) [1]: 25199.7 h*h*ug/L and 32914.3 h*h*ug/L and 26176.1 h*h*ug/L and 34761 h*h*ug/L and 21050.6 h*h*ug/L and 65086.6 h*h*ug/L
- AUMC(0-∞) [1]: 29578.1 h*h*ug/L and 55191.1 h*h*ug/L and 26325.9 h*h*ug/L and 35414.7 h*h*ug/L and 21638.6 h*h*ug/L and 72442.7 h*h*ug/L
- CLz/F [1]: 24.32 mL/min/kg and 18.23 mL/min/kg and 18.18 mL/min/kg and 22.3 mL/min/kg and 25.25 mL/min/kg and 9.88 mL/min/kg
- Cmax [1]: 1423.2 ng/mL and 1593.7 ng/mL and 2386.3 ng/mL and 1162.7 ng/mL and 1561.2 ng/mL and 2761.8 ng/mL
- MRT(0-t) [1]: 4.172 h and 2.86 h and 4.686 h and 3.208 h and 3.975 h
- MRT(0-∞) [1]: 4.315 h and 6.04 h and 4.745 h and 3.277 h and 4.296 h
- R_AUC(t/∞) [1]: 96% and 86.3% and 99.9% and 99.4% (2×) and 97.1%
- VRT(0-t) [1]: 8.179 h^2 and 9.654 h^2 and 3.358 h^2 and 8.878 h^2 and 4.734 h^2 and 6.165 h^2
- VRT(0-∞) [1]: 14.228 h^2 and 34.982 h^2 and 3.496 h^2 and 9.426 h^2 and 5.486 h^2 and 9.666 h^2
- Vz/F [1]: 5.931 L/kg and 6.375 L/kg and 1.763 L/kg and 3.171 L/kg and 3.308 L/kg and 1.765 L/kg
- t1/2z [1]: 2.817 h and 4.037 h and 1.12 h and 1.64 h and 1.514 h and 2.062 h
- λz [1]: 0.246 h⁻¹ and 0.172 h⁻¹ and 0.619 h⁻¹ and 0.423 h⁻¹ and 0.458 h⁻¹ and 0.336 h⁻¹
- AUC(0-t) [2]: 48396.5 ng·h/mL and 60392.6 ng·h/mL and 53896.5 ng·h/mL and 64214.9 ng·h/mL and 58569.4 ng·h/mL
- AUC(0-∞) [2]: 54327.6 ng·h/mL and 62633.7 ng·h/mL and 64818.2 ng·h/mL and 71935.8 ng·h/mL and 93798.8 ng·h/mL
- AUMC(0-t) [2]: 349046 h*h*ug/L and 247888 h*h*ug/L and 261964 h*h*ug/L and 270195 h*h*ug/L and 282576 h*h*ug/L and 290080 h*h*ug/L
- AUMC(0-∞) [2]: 1493251 h*h*ug/L and 344803 h*h*ug/L and 295419 h*h*ug/L and 469845 h*h*ug/L and 411554 h*h*ug/L and 1089140 h*h*ug/L
- Cmax [2]: 6430.2 ng/mL and 11259.7 ng/mL and 7015.4 ng/mL and 10641.7 ng/mL and 7734.1 ng/mL
- MRT(0-t) [2]: 5.122 h and 4.338 h and 5.013 h and 4.4 h and 4.953 h
- MRT(0-∞) [2]: 13.743 h and 6.347 h and 4.717 h and 7.249 h and 5.721 h and 11.611 h
- R_AUC(t/∞) [2]: 57.4% and 89.1% and 96.4% and 83.2% and 89.3% and 62.4%
- VRT(0-t) [2]: 10.639 h^2 and 8.135 h^2 and 6.361 h^2 and 8.635 h^2 and 7.676 h^2 and 7.393 h^2
- VRT(0-∞) [2]: 164.942 h^2 and 21.543 h^2 and 10.309 h^2 and 38.485 h^2 and 23.734 h^2 and 121.182 h^2
- Vz/F [2]: 1.173 L/kg and 0.799 L/kg and 0.467 L/kg and 0.969 L/kg and 0.654 L/kg and 1.139 L/kg
- t1/2z [2]: 8.833 h and 3.008 h and 2.029 h and 4.352 h and 3.261 h and 7.402 h
- λz [2]: 0.078 h⁻¹ and 0.23 h⁻¹ and 0.342 h⁻¹ and 0.159 h⁻¹ and 0.213 h⁻¹ and 0.094 h⁻¹

— article PMC12133000 (PLOS One, 2025)
